Results published in patent US9846167B2 (priority 2013, dated 2017).
Like-named read-outs stand apart in the source and are kept apart here.

Experiments:
[1] = format: binding; conditions: hydroxyapatite nanoparticles in PBS, single stain, FIG. 1
Description: Samples were analyzed using the Apogee A50 Nanoscale Flow Cytometer.
An isotype negative control was prepared for each Alendronate compound. […] (AL-Cy5) was Notdronate-Cy5 (NT-Cy5).

[2] = single stain

| Substance | probe-positive events (AL-positive / NT-positive background) [1] | probe-positive events, probe versus its isotype negative control ([2]; MGUS patient plasma, FIG. 4) | probe-positive events, probe versus its isotype negative control ([2]; Multiple Myeloma patient plasma, FIG. 8) | probe-positive events ([2]; healthy volunteer plasma, FIG. 2) | probe-positive events, probe versus its isotype negative control ([2]; plasma of another MGUS patient, FIG. 6) |
| --- | --- | --- | --- | --- | --- |
| FITC alendronate [AL-FITC] | significantly higher AL-positive events |  |  |  |  |
| Sulfo-Cy5 alendronate [AL-Cy5] | significantly higher AL-positive events |  |  |  |  |
| fluorescein-4-butanol [NT-FITC] | minimal | higher count of events | higher count of events | significantly higher | higher count of events |
